Columns and labels:
Type in all cases: in vivo
[1] = system: Brassica napus expressing BnaA03g55200D (SEQ ID 12) variant S1038F; assay: 6-well plate injury test, T1 seeds on vermiculite; details: 7 days after treatment
Method: (§1) Transgenic Brassica napus plants are assayed for improved tolerance to azine herbicides like e. g. 6-cyclopentyl-N4-(2,3,4,5,6-pentafluorophenyl)-1,3,5-triazine-2,4-diamine in 6-well plates. Therefore, 5-6 T1 seeds are sown on vermiculite and watered with half-strength murashige skoog nutrient solution, pH 5.8 (Murashige and Skoog (1962) Physiologia Plantarum 15: 473-497). Compounds are dissolved in dimethylsulfoxid (DMSO) and added to the medium (final DMSO concentration 0.1%). Multi well plates are incubated in a growth chamber at 22° C., 75% relative humidity and 110 μmol Phot*m^−2*s^−1 with 14: 10 h light: dark photoperiod. Growth inhibition is evaluated seven to ten days after seeding in comparison to wild type plants. Plant injury is rated on a scale of 0% to 100%, 0% being no injury and 100% being complete death.

[2] = system: Brassica napus expressing BnaA03g55200D (SEQ ID 12) variant S1041L; assay: 6-well plate injury test, T1 seeds on vermiculite; details: 7 days after treatment
Method: as §1

[3] = system: Brassica napus expressing BnaAnng01240D (SEQ ID 20) variant S1041L; assay: 6-well plate injury test, T1 seeds on vermiculite; details: 7 days after treatment
Method: as §1

[4] = system: Brassica napus expressing BnaA03g52020D (SEQ ID 15) variant G1015R; assay: Greenhouse herbicide tolerance, pre emergent; details: 7 days after treatment
Method: (§2) T1/T2 transgenic plants of Brassica napus containing cellulose synthase sequences or mutated gene variants thereof are tested for improved tolerance to herbicides in greenhouse studies with azine herbicides. For the pre-emergence treatment, the herbicides are applied directly after sowing by means of finely distributing nozzles. The containers are irrigated gently to promote germination and growth and subsequently covered with transparent plastic hoods until the plants have rooted. This cover causes uniform germination of the test plants, unless this has been impaired by the herbicides. For post emergence treatment, the test plants are first grown to a height of 3 to 15 cm, depending on the plant habit, and only then treated with the herbicides. For this purpose, the test plants are either sown directly, and grown in the same containers or they are first grown separately and transplanted into the test containers a few days prior to treatment.
(§3) Herbicide injury evaluations are taken at 1, 2 and 3 weeks after treatment. Plant biomass reduction is rated on a scale of 0% to 100%, 0% being no reduction of biomass compared to untreated control, and 100% being complete absence of biomass.

[5] = system: Brassica napus expressing BnaAnng01240D (SEQ ID 20) variant S1038F; assay: Greenhouse herbicide tolerance, pre emergent; details: 7 days after treatment
Method: as §2, §3

[6] = system: Brassica napus wildtype; assay: Greenhouse herbicide tolerance, pre emergent; details: 1.95 g/ha, 7 days after treatment
Method: as §2, §3

[7] = system: Brassica napus expressing BnaA01g04600D (SEQ ID 21) variant G1012R; assay: 6-well plate injury test, T1 seeds on vermiculite; details: BnaA01g04600D G1012R event 1, 7 days after treatment
Method: as §1

[8] = system: Brassica napus wildtype; assay: 6-well plate injury test, seeds on vermiculite
Method: as §1

[9] = system: Brassica napus expressing BnaAnng01240D (SEQ ID 20) variant S1041L; assay: Greenhouse herbicide tolerance, post emergent; details: 7 days after treatment
Method: as §2, §3

[10] = BnaAnng01240D S1041L event 1, 5*10^-8M
[11] = BnaAnng01240D S1041L event 1, 10^-6M
[12] = BnaAnng01240D S1041L event 1, 10^-7M
[13] = BnaAnng01240D S1041L event 1, 10^-8M

With `Nc1nc(Nc2c(F)c(F)c(F)c(F)c2F)nc(C2CCCC2)n1` [6-cyclopentyl-N4-(2,3,4,5,6-pentafluorophenyl)-1,3,5-triazine-2,4-diamine] the average phytotox value ([1]; BnaA03g55200D S1038F event 1, 5*10^-8M) was 40%, the average phytotox value ([1]; BnaA03g55200D S1038F event 1, 10^-6M) was 80% and the average phytotox value ([1]; BnaA03g55200D S1038F event 1, 10^-7M) was 75%. It also gave an average phytotox value ([1]; BnaA03g55200D S1038F event 1, 10^-8M) of 15%, an average phytotox value ([1]; BnaA03g55200D S1038F event 1, 10^-9M) of 0% and an average phytotox value ([1]; BnaA03g55200D S1038F event 2, 5*10^-8M) of 65%. It also gave an average phytotox value ([1]; BnaA03g55200D S1038F event 2, 10^-6M) of 90%, an average phytotox value ([1]; BnaA03g55200D S1038F event 2, 10^-7M) of 75% and an average phytotox value ([1]; BnaA03g55200D S1038F event 2, 10^-8M) of 0%. The average phytotox value ([1]; BnaA03g55200D S1038F event 2, 10^-9M) was 0%, the average phytotox value ([1]; BnaA03g55200D S1038F event 3, 5*10^-8M) was 65% and the average phytotox value ([1]; BnaA03g55200D S1038F event 3, 10^-6M) was 90%. For the same molecule, the average phytotox value ([1]; BnaA03g55200D S1038F event 3, 10^-7M) was 80%, the average phytotox value ([1]; BnaA03g55200D S1038F event 3, 10^-8M) was 0% and the average phytotox value ([1]; BnaA03g55200D S1038F event 3, 10^-9M) was 0%. The average phytotox value ([2]; BnaA03g55200D S1041L event 1, 5*10^-8M) was 35%, the average phytotox value ([2]; BnaA03g55200D S1041L event 1, 10^-6M) was 95% and the average phytotox value ([2]; BnaA03g55200D S1041L event 1, 10^-7M) was 75%. It also gave an average phytotox value ([2]; BnaA03g55200D S1041L event 1, 10^-8M) of 0%, an average phytotox value ([2]; BnaA03g55200D S1041L event 1, 10^-9M) of 0% and an average phytotox value ([2]; BnaA03g55200D S1041L event 2, 5*10^-8M) of 50%. The average phytotox value ([2]; BnaA03g55200D S1041L event 2, 10^-6M) was 90%, the average phytotox value ([2]; BnaA03g55200D S1041L event 2, 10^-7M) was 80% and the average phytotox value ([2]; BnaA03g55200D S1041L event 2, 10^-8M) was 10%. For the same molecule, the average phytotox value ([2]; BnaA03g55200D S1041L event 2, 10^-9M) was 0%, the average phytotox value ([2]; BnaA03g55200D S1041L event 3, 5*10^-8M) was 60% and the average phytotox value ([2]; BnaA03g55200D S1041L event 3, 10^-6M) was 85%. For the same molecule, the average phytotox value ([2]; BnaA03g55200D S1041L event 3, 10^-7M) was 70%, the average phytotox value ([2]; BnaA03g55200D S1041L event 3, 10^-8M) was 0% and the average phytotox value ([2]; BnaA03g55200D S1041L event 3, 10^-9M) was 0%. For the same molecule, the average phytotox value ([2]; BnaA03g55200D S1041L event 4, 5*10^-8M) was 50%, the average phytotox value ([2]; BnaA03g55200D S1041L event 4, 10^-6M) was 85% and the average phytotox value ([2]; BnaA03g55200D S1041L event 4, 10^-7M) was 60%. It also gave an average phytotox value ([2]; BnaA03g55200D S1041L event 4, 10^-8M) of 10%, an average phytotox value ([2]; BnaA03g55200D S1041L event 4, 10^-9M) of 0% and an average phytotox value [3, 10] of 55%. The average phytotox value [3, 11] was 80%, the average phytotox value [3, 12] was 70% and the average phytotox value [3, 13] was 0%. It also gave an average phytotox value ([3]; BnaAnng01240D S1041L event 1, 10^-9M) of 0%, an average phytotox value ([3]; BnaAnng01240D S1041L event 2, 5*10^-8M) of 65% and an average phytotox value ([3]; BnaAnng01240D S1041L event 2, 10^-6M) of 80%. The average phytotox value ([3]; BnaAnng01240D S1041L event 2, 10^-7M) was 80%, the average phytotox value ([3]; BnaAnng01240D S1041L event 2, 10^-8M) was 0% and the average phytotox value ([3]; BnaAnng01240D S1041L event 2, 10^-9M) was 0%. For the same molecule, the average phytotox value ([4]; 1.95 g/ha) was 27%, the average phytotox value ([4]; 3.9 g/ha) was 0% and the average phytotox value ([4]; 7.8 g/ha) was 0%. It also gave an average phytotox value ([4]; 15.6 g/ha) of 21%, an average phytotox value ([5]; 1.95 g/ha) of 1% and an average phytotox value ([5]; 3.9 g/ha) of 14%. It also gave an average phytotox value ([5]; 7.8 g/ha) of 8%, an average phytotox value ([5]; 15.6 g/ha) of 26% and an average phytotox value [6] of 18%.

`Nc1nc(Nc2nc(F)c(F)c(Cl)c2F)nc(C2(F)CCCC2)n1` [N2-(4-chloro-3,5,6-trifluoro-2-pyridyl)-6-(1-fluorocyclopentyl)-1,3,5-triazine-2,4-diamine] showed an average phytotox value ([7]; 5*10-7) of 75%, an average phytotox value ([7]; 5*10^-8M) of 10% and an average phytotox value ([7]; 10^-6M) of 80%. For the same molecule, the average phytotox value ([7]; 10^-7M) was 10%, the average phytotox value ([7]; 10^-8M) was 0% and the average phytotox value ([3]; BnaAnng01240D S1041L event 1, 5*10-7) was 90%. For the same molecule, the average phytotox value [3, 10] was 0%, the average phytotox value [3, 11] was 90% and the average phytotox value [3, 12] was 10%. For the same molecule, the average phytotox value [3, 13] was 0%, the average phytotox value ([8]; 5*10-7, 7 days after treatment) was 78% and the average phytotox value ([8]; 5*10^-8M, 7 days after treatment) was 18%. The average phytotox value ([8]; 10^-6M, 7 days after treatment) was 85%, the average phytotox value ([8]; 10^-7M, 7 days after treatment) was 56% and the average phytotox value ([8]; 10^-8M, 7 days after treatment) was 8%. The average phytotox value ([9]; 7.8 g/ha) was 6%, the average phytotox value ([9]; 15.6 g/ha) was 9% and the average phytotox value ([9]; 31.25 g/ha) was 54%. For the same molecule, the average phytotox value ([9]; 62.5 g/ha) was 64%.

Reference: US12203089B2, “Plants having increased tolerance to herbicides” (BASF SE, priority 2015, dated 2025)
